The source of these data is PMC11509912, “Identification of Novel PPARγ Partial Agonists Based on Virtual Screening Strategy: In Silico and In Vitro Experimental Validation” (Molecules, 2024).

The target in assay [1] is T1, PPARγ (Homo sapiens, UniProt P37231).
T1 construct: gene PPARG; hPPARγ plasmid
T1 sequence (P37231 1-505): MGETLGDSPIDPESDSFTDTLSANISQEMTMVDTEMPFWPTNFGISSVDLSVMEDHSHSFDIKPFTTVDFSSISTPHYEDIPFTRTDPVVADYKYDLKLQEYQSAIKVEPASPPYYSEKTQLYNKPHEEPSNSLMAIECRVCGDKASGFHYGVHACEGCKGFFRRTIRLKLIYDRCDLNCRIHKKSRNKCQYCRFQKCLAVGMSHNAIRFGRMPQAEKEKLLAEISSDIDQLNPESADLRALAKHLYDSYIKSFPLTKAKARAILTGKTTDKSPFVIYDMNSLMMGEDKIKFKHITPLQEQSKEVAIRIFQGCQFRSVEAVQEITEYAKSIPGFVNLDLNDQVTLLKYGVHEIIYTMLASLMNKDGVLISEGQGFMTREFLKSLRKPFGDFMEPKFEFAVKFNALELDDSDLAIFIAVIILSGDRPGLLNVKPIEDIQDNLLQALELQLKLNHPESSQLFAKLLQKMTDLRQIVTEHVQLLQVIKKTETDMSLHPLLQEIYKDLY
As to the kind of experiment: cos-7 cells transfected with hPPARγ, PPRE×[…] TK-luciferase transactivation assay at […]. In kind it is cell-based.

Assay [2] has as its target T2, PPARγ (Homo sapiens, UniProt P37231).
T2 construct: gene PPARG; PPARγ LBD
T2 sequence (P37231 231-505 limits assumed): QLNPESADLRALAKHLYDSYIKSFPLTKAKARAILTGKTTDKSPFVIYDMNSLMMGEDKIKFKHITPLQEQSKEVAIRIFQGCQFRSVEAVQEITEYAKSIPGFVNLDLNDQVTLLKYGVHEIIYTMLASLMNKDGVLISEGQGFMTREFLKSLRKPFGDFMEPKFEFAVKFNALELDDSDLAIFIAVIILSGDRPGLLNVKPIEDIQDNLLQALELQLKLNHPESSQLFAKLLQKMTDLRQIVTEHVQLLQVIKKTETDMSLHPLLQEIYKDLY
Briefly: LanthaScreen TR-FRET competitive binding assay (IC50 […]); supported by cell-based PPRE-luciferase assay (weak/partial agonism). Background: In TR-FRET formats the signal depends on donor and acceptor labels being close together.

In the case of `Clc1ccc(C(Cn2ccnc2)OCc2ccc(Sc3ccccc3)cc2)c(Cl)c1` (centres unmarked) [FN, fenticonazole], at PPARγ [1], the “cos-7 cells transfected with hPPARγ, PPRE×3 TK-luciferase transactivation assay” value was “podophyllotoxone exhibited weak PPARγ agonistic activity, similar to fenticonazole (FN), a PPARγ partial agonist”.

In general, Ki refers to the dissociation constant of the complex between target and ligand, obtained from inhibition or displacement. A low value points to higher affinity. In the case of `COc1cc([C@@H]2c3cc4c(cc3C(=O)[C@H]3COC(=O)[C@H]23)OCO4)cc(OC)c1OC` [podophyllotoxone], at PPARγ [2], the Ki is 9.86 µM.
